Data: patent US20020183518A1, “Modulators of proteins with phosphotyrosine recognition units” (ONTOGEN CORPORATION, priority 1995, published 2002)

Experiments:
CD45 = target: T1, CD45 (Homo sapiens, UniProt P08575); assay: In vitro PTPase inhibition assay (pNPP, colorimetric), CD45; assay type: biochemical; settings: Table 9; read-out: IC50 values against CD45
T1 construct: The PCR reaction product (2127 bp) was digested with Sma I (New England Biolabs, Beverly Mass.) to yield a 2110 bp product; made in house; host or cells: E. coli DH5α, plasmid pET24C-CD45
T1 sequence (P08575 599-1306 limits assumed): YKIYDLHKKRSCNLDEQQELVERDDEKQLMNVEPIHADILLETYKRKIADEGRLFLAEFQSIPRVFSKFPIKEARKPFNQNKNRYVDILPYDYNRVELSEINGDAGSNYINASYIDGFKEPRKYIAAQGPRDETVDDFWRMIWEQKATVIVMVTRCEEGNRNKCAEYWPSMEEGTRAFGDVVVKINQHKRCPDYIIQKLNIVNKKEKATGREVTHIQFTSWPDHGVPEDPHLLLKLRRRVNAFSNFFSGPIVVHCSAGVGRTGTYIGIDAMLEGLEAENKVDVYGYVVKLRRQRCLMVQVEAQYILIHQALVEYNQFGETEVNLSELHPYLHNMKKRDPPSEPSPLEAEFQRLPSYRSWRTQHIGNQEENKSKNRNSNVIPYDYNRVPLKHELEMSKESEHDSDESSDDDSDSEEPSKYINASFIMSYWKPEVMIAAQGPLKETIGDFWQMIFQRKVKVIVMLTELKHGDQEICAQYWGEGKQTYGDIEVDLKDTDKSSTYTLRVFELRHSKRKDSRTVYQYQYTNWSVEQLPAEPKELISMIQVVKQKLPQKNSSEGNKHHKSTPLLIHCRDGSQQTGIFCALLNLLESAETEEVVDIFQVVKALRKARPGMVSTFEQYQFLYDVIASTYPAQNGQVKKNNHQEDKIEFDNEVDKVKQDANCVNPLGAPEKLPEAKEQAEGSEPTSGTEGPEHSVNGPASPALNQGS
Method: CD45 enzymatic activity of samples was assayed in microtiter plates as follows. […] Louis Mo.), and 80 ul of activity assay buffer (100 mM sodium acetate, pH 6.0, 1 mM EDTA, 0.1% Triton X-100, 15 mM bME). Reactions were mixed gently and incubated at 37° C. for 60 minutes. […] To determine the enzymatic activity, absorbance readings of the reactions were measured at 405 nm using a Molecular Devices Thermomax Plate Reader (Menlo Park Calif.). […] Purified phosphatase was added to the reaction mixtures to begin the reactions; the reactions were incubated at 37° C. for 60 min. […] (for PTP-1C and PTPα assays), stopped, and colorimetrically analyzed as described above. […] First, absorbance readings from the negative control reactions were treated as a baseline and subtracted from the absorbance readings of the experimental reactions. Then, for each reaction, a percent inhibition was calculated using the following formula: […] For each inhibitor compound tested, an IC50 concentration was calculated from a best-fit computer analysis of the calculated percent inhibition for the various dilutions of the compound. CD45 enzymatic activity of samples was assayed in microtiter plates as follows. […] Louis Mo.), and 80 ul of activity assay buffer (100 mM sodium acetate, pH 6.0, 1 mM EDTA, 0. 1% Triton X-100, 15 mM bME). Reactions were mixed gently and incubated at 37° C. for 60 minutes. […] To determine the enzymatic activity, absorbance readings of the reactions were measured at 405 nm using a Molecular Devices Thermomax Plate Reader (Menlo Park Calif.). […] Purified phosphatase was added to the reaction mixtures to begin the reactions; the reactions were incubated at 37° C. for 60 min. […] (for PTP-1C and PTPα assays), stopped, and calorimetrically analyzed as described above. […] First, absorbance readings from the negative control reactions were treated as a baseline and subtracted from the absorbance readings of the experimental reactions. Then, for each reaction, a percent inhibition was calculated using the following formula: […] For each inhibitor compound tested, an IC50 concentration was calculated from a best-fit computer analysis of the calculated percent inhibition for the various dilutions of the compound.

PTP-1B = target: T2, PTP-1B (Homo sapiens, UniProt P18031); assay: In vitro PTPase inhibition assay (pNPP, colorimetric), PTP-1B; assay type: biochemical; settings: Table 9; read-out: IC50 values against PTP1B
T2 construct: known to encode a 321 amino acid fragment containing the PTP-1B catalytic domain and having PTPase activity; made in house; host or cells: E. coli DH5α, plasmid pGEX-3X-PTP-1B
T2 sequence (P18031 3-277 limits assumed): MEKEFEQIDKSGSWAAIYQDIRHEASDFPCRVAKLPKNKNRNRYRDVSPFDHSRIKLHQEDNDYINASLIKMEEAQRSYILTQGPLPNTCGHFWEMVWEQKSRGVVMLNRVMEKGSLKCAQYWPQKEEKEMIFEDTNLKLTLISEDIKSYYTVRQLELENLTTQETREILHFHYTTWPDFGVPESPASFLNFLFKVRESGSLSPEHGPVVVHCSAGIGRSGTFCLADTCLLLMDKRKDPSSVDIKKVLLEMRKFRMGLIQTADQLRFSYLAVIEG
Method: PTP-1B enzymatic activity of samples was assayed in microtiter plates as follows. The protein concentration of the PTP-1B enzyme preparation was determined using the Bio-Rad Protein Assay kit (Bio-Rad, Hercules Calif.). […] Reactions were mixed gently and incubated at 37° C. for 60 minutes. Enzymatic cleavage of phosphate from pNPP (a tyrosine phosphate analog) is marked by a colorimetric change in this substrate. See, e.g., Imbert et al., Biochem J., 297:163-173 (1994); Ghosh and Miller, Biochem. Biophys. Res. […] Zanke et al., Eur. J. […] To determine the enzymatic activity, absorbance readings of the reactions were measured at 405 nm using a Molecular Devices Thermomax Plate Reader (Menlo Park Calif.). […] Purified phosphatase was added to the reaction mixtures to begin the reactions; the reactions were incubated at 37° C. for 60 min. […] (for PTP-1C and PTPα assays), stopped, and colorimetrically analyzed as described above. […] First, absorbance readings from the negative control reactions were treated as a baseline and subtracted from the absorbance readings of the experimental reactions. Then, for each reaction, a percent inhibition was calculated using the following formula: […] For each inhibitor compound tested, an IC50 concentration was calculated from a best-fit computer analysis of the calculated percent inhibition for the various dilutions of the compound. PTP-1B enzymatic activity of samples was assayed in microtiter plates as follows. The protein concentration of the PTP-1B enzyme preparation was determined using the Bio-Rad Protein Assay kit (Bio-Rad, Hercules Calif.). […] Reactions were mixed gently and incubated at 37° C. for 60 minutes. Enzymatic cleavage of phosphate from pNPP (a tyrosine phosphate analog) is marked by a colorimetric change in this substrate. See, e.g., Imbert et al., Biochem J., 297:163-173 (1994); Ghosh and Miller, Biochem. Biophys. Res. […] Zanke et al., Eur. […] To determine the enzymatic activity, absorbance readings of the reactions were measured at 405 nm using a Molecular Devices Thermomax Plate Reader (Menlo Park Calif.). […] Purified phosphatase was added to the reaction mixtures to begin the reactions; the reactions were incubated at 37° C. for 60 min. […] (for PTP-1C and PTPα assays), stopped, and calorimetrically analyzed as described above. […] First, absorbance readings from the negative control reactions were treated as a baseline and subtracted from the absorbance readings of the experimental reactions. Then, for each reaction, a percent inhibition was calculated using the following formula: […] For each inhibitor compound tested, an IC50 concentration was calculated from a best-fit computer analysis of the calculated percent inhibition for the various dilutions of the compound.

Row | IC50 (CD45) | IC50 (PTP-1B) | Structure (SMILES)
1 | 4200 nM | 640 nM | Cn1cc(-c2nc(-c3ccc(/C=C/C(=O)O)cc3)c(-c3ccc(/C=C/C(=O)O)cc3)[nH]2)c2ccccc21 [Compound 74]
2 | 970 nM | 250 nM | COc1ccc(-c2nc(-c3ccc(/C=C/C(=O)O)cc3)c(-c3ccc(/C=C/C(=O)O)cc3)[nH]2)cc1 [Compound 58]
3 | 530 nM | 430 nM | O=C(O)/C=C/c1ccc(-c2nc(-c3ccc4c(c3)OCCO4)[nH]c2-c2ccc(/C=C/C(=O)O)cc2)cc1 [Compound 71]
4 | 7500 nM | 780 nM | CCCCCc1nc(-c2ccc(/C=C/C(=O)O)cc2)c(-c2ccc(/C=C/C(=O)O)cc2)[nH]1 [Compound 77]
5 | 12800 nM | 11900 nM | O=C(O)/C=C/c1ccc(-c2nc(-c3cc(Cl)cc(Cl)c3Cl)[nH]c2-c2ccc(/C=C/C(=O)O)cc2)cc1 [Compound 82]
6 | > 100000 nM | 25900 nM | COc1ccc(-c2nc(-c3cc(/C=C/C(=O)O)ccc3O)c(-c3cc(/C=C/C(=O)O)ccc3O)[nH]2)cc1 [Compound 91]
7 | 2450 nM | 3830 nM | Cc1ccc2nc(-c3ccc(/C=C/C(=O)O)cc3)c(-c3ccc(/C=C/C(=O)O)cc3)nc2c1 [Compound 154]
8 | 19000 nM | 26000 nM | O=C(O)/C=C/c1ccc(-c2nc(-c3cc4ccccc4c4ccccc34)[nH]c2-c2ccc(/C=C/C(=O)O)cc2)cc1 [Compound 81]
9 | 1000 nM | 250 nM | O=C(O)/C=C/c1ccc(-c2nc(-c3ccccc3[N+](=O)[O-])[nH]c2-c2ccc(/C=C/C(=O)O)cc2)cc1 [Compound 57]
10 | 560 nM | 100 nM | O=C(O)/C=C/c1ccc(-c2nc[nH]c2-c2ccc(/C=C/C(=O)O)cc2)cc1 [Compound 55]
11 | 8000 nM | 700 nM | O=C(O)/C=C/c1ccc(-c2nc(C(=O)OCc3ccccc3)c(-c3ccc(/C=C/C(=O)O)cc3)[nH]2)cc1 [Compound 136]
12 | 2800 nM | 620 nM | N#Cc1ccc(-c2nc(-c3ccc(/C=C/C(=O)O)cc3)c(-c3ccc(/C=C/C(=O)O)cc3)[nH]2)cc1 [Compound 73]
13 | 865 nM | 300 nM | CCN(CC)c1ccc(-c2nc(-c3ccc(/C=C/C(=O)O)cc3)c(-c3ccc(/C=C/C(=O)O)cc3)[nH]2)cc1 [Compound 68]
14 | 1520 nM | 980 nM | O=C(O)/C=C/c1ccc(-c2nc3cccnc3nc2-c2ccc(/C=C/C(=O)O)cc2)cc1 [Compound 160]
15 | 5500 nM | 520 nM | COc1cc(OC)c(OC)c(-c2nc(-c3ccc(/C=C/C(=O)O)cc3)c(-c3ccc(/C=C/C(=O)O)cc3)[nH]2)c1 [Compound 72]
16 | 955 nM | 970 nM | O=C(O)/C=C/c1ccc(-c2nc(-c3cccc(F)c3)[nH]c2-c2ccc(/C=C/C(=O)O)cc2)cc1 [Compound 61]

Row | Structure (SMILES) | IC50 (CD45) | IC50 (PTP-1B)
17 | O=C(O)/C=C/c1ccc(-c2nc(-c3ccc(C(=O)O)cc3)[nH]c2-c2ccc(/C=C/C(=O)O)cc2)cc1 [Compound 54] | 730 nM | 72 nM
